Source: US7994185B2, “Benzene sulfonamide thiazole and oxazole compounds” (Glaxo Smith Kline LLC, priority 2008, dated 2011)
pIC50: −log10 of the molar value. Read-outs that look alike come from different tables or passages of the source.

Legend:
[1] = molecular target: T1, BRAFV600E full-length (amino acids 2-766) (Homo sapiens, UniProt P15056, V600E); assay: B-Raf Accelerated MEK ATPase assay (BRAMA); type: biochemical; settings: categorized; for IC50: Table 1b, read-out: B-Raf pIC50 (converted)
T1 construct: His6-tagged BRAFV600E full-length (amino acids 2-766); His6; made in house; host or cells: baculovirus expression system (insect cells)
How it was run: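 Coupled-enzyme readout: ADP generated by MEK-mediated ATP hydrolysis, uncoupled from ERK phosphorylation, is linked to NADH oxidation through pyruvate kinase and lactate dehydrogenase.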

[2] = tested on: Human colon tumor cells (Colo205); assay: Cell growth inhibition assay (CellTiter-Glo), Colo205; type: cell-based
How it was run: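 Luminescent ATP read-out (CellTiter-Glo) served as a proxy for cell number; percent growth inhibition was calculated against DMSO vehicle wells. Cells were treated for 3 days at 37 °C with serially diluted compound, 0.2% DMSO final.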

[3] = tested on: Human melanoma cancer cells (SK-MEL-28); assay: Cell growth inhibition assay (CellTiter-Glo), SK-MEL-28; type: cell-based
[4] = B-Raf Activity, Table 1a, highest pIC50 for the one or more runs
[5] = B-Raf pIC50, Table 1b, later runs, average pIC50 for the one or more runs
[6] = COLO 205, 72 h, Table 2a, 3 days incubation, read-out: Activity in Colo205 Tumor Cells
[7] = COLO 205, Table 2b, later runs, average for the one or more runs, categorized, read-out: IC50 for Colo205
[8] = SK-MEL-28, 72 h, Table 3a, 3 days incubation, read-out: Activity in SK-MEL-28 Tumor Cells
[9] = SK-MEL-28, Table 3b, later runs, average for the one or more runs, categorized, read-out: IC50 for SK-MEL-28
[10] = later runs, average pIC50 for the one or more runs

T1 sequence (P15056 2-766 V600E): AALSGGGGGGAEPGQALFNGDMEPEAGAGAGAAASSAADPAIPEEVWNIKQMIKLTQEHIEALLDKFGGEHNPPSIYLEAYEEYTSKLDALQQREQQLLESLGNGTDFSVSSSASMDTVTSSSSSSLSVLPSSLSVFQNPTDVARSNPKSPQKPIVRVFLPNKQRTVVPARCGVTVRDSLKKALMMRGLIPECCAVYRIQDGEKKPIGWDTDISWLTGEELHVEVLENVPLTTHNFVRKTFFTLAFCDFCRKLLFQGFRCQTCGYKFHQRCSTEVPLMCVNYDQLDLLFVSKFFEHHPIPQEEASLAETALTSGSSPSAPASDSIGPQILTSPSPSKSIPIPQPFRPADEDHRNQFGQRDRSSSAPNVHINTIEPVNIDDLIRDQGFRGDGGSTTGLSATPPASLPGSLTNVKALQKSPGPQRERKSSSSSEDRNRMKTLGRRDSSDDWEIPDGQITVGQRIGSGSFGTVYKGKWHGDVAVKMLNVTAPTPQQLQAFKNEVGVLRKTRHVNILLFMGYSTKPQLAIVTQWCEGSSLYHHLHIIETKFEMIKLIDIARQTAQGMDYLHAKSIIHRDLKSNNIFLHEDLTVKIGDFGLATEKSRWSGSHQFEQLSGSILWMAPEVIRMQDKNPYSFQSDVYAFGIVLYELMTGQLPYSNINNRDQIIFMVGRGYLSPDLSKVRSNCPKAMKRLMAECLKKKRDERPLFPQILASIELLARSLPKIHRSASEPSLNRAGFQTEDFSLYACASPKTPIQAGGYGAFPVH

Compound	pIC50 [1, 4]	pIC50 [1, 5]	pIC50 [2, 6]	pIC50 [2, 7]	pIC50 [3, 8]	pIC50 [3, 9]	IC50 [1, 10]
CC(C)c1nc(-c2cccc(NS(=O)(=O)c3cccnc3)c2)c(-c2ccnc(NCCS(C)(=O)=O)n2)s1 [Example 33, N-{3-[2-(1-Methylethyl)-5-(2-{[2-(methylsulfonyl)ethyl]amino}-4-pyrimidinyl)-1,3-thiazol-4-yl]phenyl}-3-pyridinesulfonamide]	> 7.00	≥ 8.50	> 7.00	> 7.00	> 7.00	> 7.00	
CC(C)(C)c1nc(-c2cccc(NS(=O)(=O)c3cc(F)ccc3F)c2F)c(-c2ccnc(NCCN3CCCC3=O)n2)s1 [Example 97, N-{3-[2-(1,1-Dimethylethyl)-5-(2-{[2-(2-oxo-1-pyrrolidinyl)ethyl]amino}-4-pyrimidinyl)-1,3-thiazol-4-yl]-2-fluorophenyl}-2,5-difluorobenzenesulfonamide]	> 7.00	≥ 8.50	> 7.00	6.00 to 7.00	> 7.00	> 7.00	
CC(C)(C)c1nc(-c2cccc(NS(=O)(=O)c3ccccn3)c2F)c(-c2ccnc(N)n2)s1 [Example 278, N-{3-[5-(2-amino-4-pyrimidinyl)-2-(1,1-dimethylethyl)-1,3-thiazol-4-yl]-2-fluorophenyl}-2-pyridinesulfonamide]				6.00 to 7.00		6.00 to 7.00	3.16 to 31.6 nM
CC(C)(C)c1nc(-c2cccc(NS(=O)(=O)C3CCCCC3)c2F)c(-c2ccnc(N)n2)s1 [Example 63, N-{3-[5-(2-Amino-4-pyrimidinyl)-2-(1,1-dimethylethyl)-1,3-thiazol-4-yl]-2-fluorophenyl}cyclohexanesulfonamide]	6.00 to 7.00	6.00 to 7.50	6.00 to 7.00	6.00 to 7.00	6.00 to 7.00	6.00 to 7.00	
CS(=O)(=O)N1CCC(c2nc(-c3cccc(NS(=O)(=O)c4cc(F)ccc4F)c3F)c(-c3ccnc(N)n3)s2)CC1 [Example 101, N-(3-{5-(2-Amino-4-pyrimidinyl)-2-[1-(methylsulfonyl)-4-piperidinyl]-1,3-thiazol-4-yl}-2-fluorophenyl)-2,5-difluorobenzenesulfonamide]	> 7.00	≥ 8.50	> 7.00	> 7.00	> 7.00	> 7.00	
CC(C)(C)c1nc(-c2cccc(NS(=O)(=O)c3cc(F)ccc3F)c2Cl)c(-c2ccnc(CCS(C)(=O)=O)n2)s1 [Example 252, N-[2-chloro-3-(2-(1,1-dimethylethyl)-5-{2-[2-(methylsulfonyl)ethyl]-4-pyrimidinyl}-1,3-thiazol-4-yl)phenyl]-2,5-difluorobenzenesulfonamide]		≥ 8.50		> 7.00		> 7.00	
CC(C)CNc1nccc(-c2sc(N3CCOCC3)nc2-c2ccc(F)c(NS(=O)(=O)c3cc(F)ccc3F)c2)n1 [Example 139]	> 7.00		> 7.00	6.00 to 7.00	> 7.00	6.00 to 7.00	3.16 to 31.6 nM
CC(C)CNc1nccc(-c2sc(N3CCOCC3)nc2-c2cccc(NS(=O)(=O)c3cccnc3)c2F)n1 [Example 45, N-{2-Fluoro-3-[5-{2-[(2-methylpropyl)amino]-4-pyrimidinyl}-2-(4-morpholinyl)-1,3-thiazol-4-yl]phenyl}-3-pyridinesulfonamide]	> 7.00	≥ 8.50	6.00 to 7.00	6.00 to 7.00	6.00 to 7.00	6.00 to 7.00	
Nc1nccc(-c2sc(N3CCOCC3)nc2-c2cccc(NS(=O)(=O)C3CCCCC3)c2F)n1 [Example 48, N-{3-[5-(2-Amino-4-pyrimidinyl)-2-(4-morpholinyl)-1,3-thiazol-4-yl]-2-fluorophenyl}cyclohexanesulfonamide]	6.00 to 7.00	6.00 to 7.50	6.00 to 7.00	6.00 to 7.00	6.00 to 7.00	6.00 to 7.00	
